From patent US20090111836A1, “Angular Pyranocoumarins, Process for Preparation and Uses Thereof” (CITY UNIVERSITY OF HONG KONG, priority 2007, published 2009)
Read-outs that look alike come from different tables or passages of the source.

Tests used:
[1] = tested on: KB-3-1 cells; test: SRB growth inhibition assay, KB-3-1; type: cell-based; conditions: Homo sapiens, read-out: IC50 (cytotoxicity)
[2] = tested on: K562-DR cells; test: MTT growth inhibition assay, K562-DR; type: cell-based, human; conditions: for IC50: Homo sapiens, read-out: IC50 (cytotoxicity); for Resistant ratio: IC50 K562-DR / IC50 K562
Procedure: (§1) K562, K562-DR, HepG2, HepG2-DR were cultured in RPMI-1640 medium containing 10% fetal bovine serum and 100 U/mL, antibiotics. […] Drug test: […] New calorimetric cytotoxicity assay for anticancer-drug screening. […] Mosmann T. Rapid colorimetric assay for cellular growth and survival: application to proliferation and cytotoxicity assays. […] Gerlier D, Thomasset N. […] Each growth inhibition experiment must be repeated three times and results are expressed as mean±standard deviation (SD). Solvents and media were included as blank control. In MTT assay, cells are inoculated at 5000 cells/well and are incubated overnight. Drug treatment lasts for 68 h. MTT (5 mg/ml in PBS) is added to each well (1:10 dilution). […] Viable cell number is estimated by correlating to OD at 570 nm.

[3] = tested on: K562 cells; test: MTT growth inhibition assay, K562; type: cell-based; conditions: Homo sapiens
Procedure: as §1

[4] = tested on: HepG2 cells; test: Cell cycle distribution by flow cytometry, HepG2; type: cell-based, human
Procedure: (§2) 1.2 Instruments: FACSCAN flow cytometry (Becton Dickinson Immunocytometry Systems, San Jose, Calif.), the obtained data were analyzed using the software of Macintosh CellQuest.
(§3) 1.3 Cell lines: HepG2, HepG2-DR.
(§4) 1.4 Drug treatment: HepG2 and HepG2-DR cells were respectively treated with each of cis-DMDCK, cis-DMDBK, trans-DMDCK, trans-DMDBK and doxorubicin for 48 hours, or treated respectively with the combination of doxorubicin and one of cis-DMDCK, cis-DMDBK, trans-DMDCK, trans-DMDBK for 48 hours.
(§5) 1.5 Treatment and detection of sample cells: after washed twice by ice-cold PBS, the cells were fixed with 70% ethanol at −20° C. overnight. The fixed cells were washed by PBS once and resuspended in 1 mL of PBS containing 100 μg/mL RNAase A and incubated at 37° C. for 30 minutes. Finally, propidium iodide solution (final concentration is 40 μg/mL,) was added to bind with DNA and incubated at room temperature for 5-10 minutes. Cells were analyzed by FACSCAN flow cytometry immediately.

[5] = tested on: HepG2-DR cells; test: SRB growth inhibition assay, HepG2-DR; type: cell-based, human; conditions: for IC50: Homo sapiens, 72 h, read-out: IC50 (cytotoxicity); for Resistant ratio: IC50 HepG2-DR / IC50 HepG2
Procedure: (§6) K562, K562-DR, HepG2, HepG2-DR were cultured in RPMI-1640 medium containing 10% fetal bovine serum and 100 U/mL, antibiotics. […] Drug test: […] New calorimetric cytotoxicity assay for anticancer-drug screening. […] Mosmann T. Rapid colorimetric assay for cellular growth and survival: application to proliferation and cytotoxicity assays. […] Gerlier D, Thomasset N. […] Each growth inhibition experiment must be repeated three times and results are expressed as mean±standard deviation (SD). Solvents and media were included as blank control. In SRB assay, cells are inoculated at 5000 cells/well in a 96-well microplate and incubated overnight to let cells adhere. Drug treatment lasts for 72 hours and cells are fixed for 1 hour at 4° C. with 50 μl ice-cold 15% trichloroacetic acid and washed with triple-distilled water 5 times. […] The protein-bound dye is dissolved in 100 μl per well of 10 mM Tris base (pH 10.5). The color intensity of SRB, which positively correlate to cell number in preliminary experiments, is estimated at OD 515 nm.

[6] = tested on: HepG2-DR cells; test: Cell cycle distribution by flow cytometry (doxorubicin-induced G2/M arrest), HepG2-DR; type: cell-based, human; conditions: for Cell cycle distribution, G0/G1 / Cell cycle distribution, G2/M / Cell cycle distribution, S / Cell cycle distribution, SubG1: HepG2-DR, 48 h
Procedure: as §2, §3, §4, §5

[7] = tested on: KB V1 cells; test: SRB growth inhibition assay, KB V1; type: cell-based, human; conditions: for IC50: Homo sapiens, read-out: IC50 (cytotoxicity); for Resistant ratio: IC50 KB V1 / IC50 KB-3-1
[8] = tested on: HepG2 cells; test: SRB growth inhibition assay, HepG2; type: cell-based; conditions: Homo sapiens, read-out: IC50 (cytotoxicity)
Procedure: as §6

[9] = tested on: Pgp-MDR cells; conditions: Wu et al., Eur J Pharmacol 2003; cited from earlier work
[10] = K562, MTT, (×10^−3), read-out: IC50 (cytotoxicity)

## COc1cccc2c1C(=O)c1c(O)c3c(c(O)c1C2=O)C[C@@](O)(C(=O)CO)C[C@@H]3O[C@H]1C[C@H](N)[C@H](O)[C@H](C)O1 [Doxorubicin, reference compound]
[1]; KB-3-1, SRB, 72 h
  IC50: 180 ± 40 nM
[2]; K562-DR, MTT
  IC50: 31000 ± 17100 nM
[2]
  Resistant ratio: 129
[3]; K562, MTT, read-out: IC50 (cytotoxicity)
  IC50: 240 ± 80 nM
[4]; HepG2, 0.2 μM alone, 48 h
  Cell cycle distribution, G0/G1: 4.92 ± 0.91%
  Cell cycle distribution, G2/M: 76.57 ± 1.32%
  Cell cycle distribution, S: 8.89 ± 0.83%
  Cell cycle distribution, SubG1: 0.92 ± 0.45%
[4]; drug sensitive HepG2 cells
  Concentration achieving almost a complete G2/M arrest: 0.2 µM
[5]; HepG2-DR, SRB
  IC50: 37300 ± 2420 nM
[5]
  Resistant ratio: 219
[6]; 1 μM alone
  Cell cycle distribution, G0/G1: 51.33 ± 0.92%
  Cell cycle distribution, G2/M: 33.47 ± 0.17%
  Cell cycle distribution, S: 7.74 ± 3.57%
  Cell cycle distribution, SubG1: 2.37 ± 0.34%
[6]; 10 μM alone
  Cell cycle distribution, G0/G1: 24.81 ± 0.23%
  Cell cycle distribution, G2/M: 60.80 ± 0.79%
  Cell cycle distribution, S: 6.86 ± 1.80%
  Cell cycle distribution, SubG1: 3.37 ± 0.17%
[6]; 50 μM alone
  Cell cycle distribution, G0/G1: 12.05 ± 5.08%
  Cell cycle distribution, G2/M: 73.43 ± 9.00%
  Cell cycle distribution, S: 5.58 ± 1.34%
  Cell cycle distribution, SubG1: 4.88 ± 0.75%
[6]; P-glycoprotein-overexpressing HepG2-DR cells
  Concentration required for almost a complete G2/M arrest: over 50 μM
[7]; KB V1, SRB, 72 h
  IC50: 32000 ± 2740 nM
[7]
  Resistant ratio: 178
[8]; HepG2, SRB, 72 h
  IC50: 170 ± 100 nM

## CC(=O)O[C@H]1C(=O)[C@@]2(C)[C@H]([C@H](OC(=O)c3ccccc3)[C@]3(O)C[C@H](OC(=O)[C@H](O)[C@@H](NC(=O)c4ccccc4)c4ccccc4)C(C)=C1C3(C)C)[C@]1(OC(C)=O)CO[C@@H]1C[C@@H]2O [Paclitaxel]
[1]; KB-3-1, SRB, 72 h
  IC50: 2 ± 1 nM
[2]; K562-DR, MTT
  IC50: 3250 ± 450 nM
[2]
  Resistant ratio: 5417
[3]; [10]
  IC50: 0.6 ± 0.23 nM
[5]; HepG2-DR, SRB
  IC50: 4230 ± 60 nM
[5]
  Resistant ratio: 696
[7]; KB V1, SRB, 72 h
  IC50: 8000 ± 1480 nM
[7]
  Resistant ratio: 4000
[8]; HepG2, SRB, 72 h, (×10^−3)
  IC50: 6.07 ± 2.61 nM

## COc1ccc(C[C@H](N)C(=O)N[C@H]2[C@@H](O)[C@H](n3cnc4c(N(C)C)ncnc43)O[C@@H]2CO)cc1 [Puromycin]
[1]; KB 3-1, 72 h
  IC50: 210 ± 50 nM
[2]
  IC50: 47700 ± 9000 nM
  Resistant ratio: 122
[3]; K562, read-out: IC50 (cytotoxicity)
  IC50: 390 ± 160 nM
[5]
  IC50: 104000 ± 2480 nM
  Resistant ratio: 597
[7]; KB-V1, 72 h
  IC50: 79300 ± 8810 nM
[7]
  Resistant ratio: 378
[8]; HepG2, 72 h
  IC50: 170 ± 70 nM

## CC[C@]1(O)C[C@@H]2CN(CCc3c([nH]c4ccccc34)[C@@](C(=O)OC)(c3cc4c(cc3OC)N(C)[C@H]3[C@@](O)(C(=O)OC)[C@H](OC(C)=O)[C@]5(CC)C=CCN6CC[C@]43[C@@H]65)C2)C1 [Vinblastine]
[1]; KB-3-1, SRB, 72 h, (×10^−3)
  IC50: 0.11 ± 0.01 nM
[2]; K562-DR, MTT
  IC50: 200 ± 70 nM
[2]
  Resistant ratio: 227
[3]; [10]
  IC50: 0.88 ± 0.25 nM
[5]; HepG2-DR, SRB
  IC50: 310 ± 60 nM
[5]
  Resistant ratio: 3100
[7]; KB V1, SRB, 72 h
  IC50: 1040 ± 340 nM
[7]
  Resistant ratio: 9271
[8]; HepG2, SRB, 72 h, (×10^−3)
  IC50: 0.1 ± 0.01 nM

## (±)-Praeruptorin A
[9]
  Enhancement of drug sensitivity of Pgp-MDR cells: only moderate
